One assay has as its target T1, human SGLT1 (Homo sapiens, UniProt P13866).
T1 construct: expressed in transfected cells
T1 sequence (P13866 1-664): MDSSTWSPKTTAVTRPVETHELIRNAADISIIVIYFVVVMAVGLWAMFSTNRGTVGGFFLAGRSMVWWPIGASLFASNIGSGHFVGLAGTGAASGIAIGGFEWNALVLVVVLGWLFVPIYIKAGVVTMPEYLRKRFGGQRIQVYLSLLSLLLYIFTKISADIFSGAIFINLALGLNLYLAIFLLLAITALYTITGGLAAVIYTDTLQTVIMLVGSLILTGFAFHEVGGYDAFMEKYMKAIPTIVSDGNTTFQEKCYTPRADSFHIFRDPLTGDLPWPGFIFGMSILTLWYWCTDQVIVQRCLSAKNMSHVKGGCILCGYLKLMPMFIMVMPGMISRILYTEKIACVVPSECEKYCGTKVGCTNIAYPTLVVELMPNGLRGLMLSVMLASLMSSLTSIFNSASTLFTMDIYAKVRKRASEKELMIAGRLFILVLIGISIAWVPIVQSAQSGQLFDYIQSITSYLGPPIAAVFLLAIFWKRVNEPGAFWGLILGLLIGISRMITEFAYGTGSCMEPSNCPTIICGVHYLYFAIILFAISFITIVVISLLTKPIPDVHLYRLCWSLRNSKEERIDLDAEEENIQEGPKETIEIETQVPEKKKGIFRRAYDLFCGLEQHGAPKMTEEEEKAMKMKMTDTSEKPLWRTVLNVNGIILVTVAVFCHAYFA
Kind of assay: SGLT1 in vitro assay: Na-dependent 14C-AMG uptake in CHO-K1 cells stably expressing human SGLT1. The format is cell-based. The settings on record: CHO-K1 cells stably expressing human SGLT1, 14C-AMG uptake; for inhibition at 0.3 µM: read-out: SGLT1 % Inh @ 0.3 μM; for IC50: compounds of formula (I) where R0 is fluoro. On the procedure: (§1) Biological Example 1: SGLT1 and SGLT2 In Vitro Assays
(§2) The ability of the compounds of formula (I) of the present invention to treat an SGLT-mediated condition was determined using the following procedures:
(§3) SGLT1 and SGLT2 were cloned in form of cDNA from human small intestine (Genbank M24847), and from human kidney (Genbank M95549), respectively. Subsequently, each full cDNA was subcloned into pcDNA with each construct's integrity verified through follow-on sequencing. To generate CHO-K1 cells that stably express human SGLT1 or human SGLT2, CHO-K1 cells were transfected using DMRIE-C reagent (Life Technologies, Gaithersburg, Md.). Transfected cells were then selected in the presence of 500 μg/ml of the Geneticin (G418 Cellgro Catalog No. 30234-CI)
(§4) Individual clones were then characterized using the following cell-based assay for sodium-dependent glucose transport:
(§5) Inhibition of SGLT1 and SGLT2 activity was assessed in CHO K1 cells stably expressing either human SGLT1 or SGLT2, using the SGLT specific glucose analog methyl-glucopyranoside (Sigma Catalog No. M-9376). Cells were plated (45,000 cells/well) in white wall 96-well plates (COSTAR, Cat #3903) for 24 hours in growth medium, then a final concentration of 10 mM Na-Butyrate (ALDRICH Cat #30341-0) was added. The cells were incubated for 24 hours. On the day of the assay, cells were rinsed and treated with test compounds (at concentrations of 0.001 μM to 10 μM) in assay buffer (50 mM HEPES, 20 mM Tris base, 5 mM KCl, 1 mM MgCl2, 1 mM CaCl2 and 137 mM NaCl, pH 7.4) for 10 minutes. Cells were then incubated with ^14C-a-methyl-d-glucopyranoside (AMG, Amersham Catalog No. CFB 76), using 0.07 μCi per well in 500 µM AMG final concentration. The cells were incubated for 2 hours at 37° C. with 5% CO2 and washed two times with ice-cold Phosphate Buffer Solution (CELLGRO Catalog No. 21030-CV). The cells were then solubilized by adding 60 μl of MICROSCINT™ 20 and the Na-dependent ^14C-AMG uptake was quantified by measuring radioactivity. Plates were counted in a TopCount (Packard, Meriden, Conn.)
(§6) Representative compounds of the present invention were tested according to the procedures as described in Biological Example 1 and 2 above, with results as listed in Table 5, below. Results are reported as the %-inhibition or IC50 value. Variability for the functional assay was typically within 20%.

The target of a further assay is T2, human SGLT2 (Homo sapiens, UniProt P31639).
T2 construct: expressed in transfected cells
T2 sequence (P31639 1-672): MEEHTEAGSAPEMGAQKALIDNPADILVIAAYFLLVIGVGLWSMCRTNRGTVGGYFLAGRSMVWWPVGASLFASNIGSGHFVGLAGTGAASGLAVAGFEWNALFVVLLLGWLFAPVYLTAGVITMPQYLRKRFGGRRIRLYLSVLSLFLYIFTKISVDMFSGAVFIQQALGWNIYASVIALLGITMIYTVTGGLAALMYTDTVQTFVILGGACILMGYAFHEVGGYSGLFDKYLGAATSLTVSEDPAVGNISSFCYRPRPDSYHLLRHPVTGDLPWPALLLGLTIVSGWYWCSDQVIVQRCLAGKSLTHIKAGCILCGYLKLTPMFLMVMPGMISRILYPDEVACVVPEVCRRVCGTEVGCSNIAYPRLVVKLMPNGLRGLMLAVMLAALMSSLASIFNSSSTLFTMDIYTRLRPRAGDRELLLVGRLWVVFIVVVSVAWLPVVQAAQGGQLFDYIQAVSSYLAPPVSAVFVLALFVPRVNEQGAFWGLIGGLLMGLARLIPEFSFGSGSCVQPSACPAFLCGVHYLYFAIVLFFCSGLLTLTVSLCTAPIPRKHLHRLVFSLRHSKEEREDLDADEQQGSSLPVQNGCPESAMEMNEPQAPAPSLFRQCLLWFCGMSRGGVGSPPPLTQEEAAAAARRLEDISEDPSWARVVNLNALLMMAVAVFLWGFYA
Kind of assay: SGLT2 in vitro assay: Na-dependent 14C-AMG uptake in CHO-K1 cells stably expressing human SGLT2. In kind it is cell-based. Particulars: CHO-K1 cells stably expressing human SGLT2, 14C-AMG uptake; for inhibition at 0.3 µM: read-out: SGLT2 % Inh @ 0.3 μM; for IC50: compounds of formula (I) where R0 is fluoro. On the procedure:
as §1, §2, §3, §4, §5, §6

As to `CCc1ccc(Cc2cc([C@@H]3O[C@H](CO)C(F)(F)[C@H](O)[C@H]3O)c(OC)c3c2OCC3)cc1` [Compound 38], the “SGLT1 % Inh @ 0.3 μM” value at human SGLT1 worked out at 47.4%. Besides, on human SGLT2, the “SGLT2 % Inh @ 0.3 μM” value is recorded as 65.9%.
`COCCOc1cc(C)c(Cc2cc3ccccc3s2)cc1[C@@H]1O[C@H](CO)C(F)(F)[C@H](O)[C@H]1O` [Compound 39]: the “SGLT1 % Inh @ 0.3 μM” value at human SGLT1 amounted to 31.8%. Also, on human SGLT2, the “SGLT2 % Inh @ 0.3 μM” value was 76.4%.
For `Cc1cc(OCC#N)c([C@@H]2O[C@H](CO)C(F)(F)[C@H](O)[C@H]2O)cc1Cc1cc2ccccc2s1` [Compound 40, 2-[4-(benzothiophen-2-ylmethyl)-2-[(2S,3R,4R,6R)-5,5-difluoro-3,4-dihydroxy-6-(hydroxymethyl)tetrahydropyran-2-yl]-5-methyl-phenoxy]acetonitrile], the inhibition at 0.3 µM was 54% at human SGLT1 and 85.4% at human SGLT2. Also, the IC50 against human SGLT1 was found to be 176 nM; against human SGLT2 it was 3.5 nM.
As for `CCOc1cc(C)c(Cc2cc3ccccc3s2)cc1[C@@H]1O[C@H](CO)C(F)(F)[C@H](O)[C@H]1O` [Compound 41], at human SGLT1, the “SGLT1 % Inh @ 0.3 μM” value came to 5.8%. Moreover, at human SGLT2, the “SGLT2 % Inh @ 0.3 μM” value worked out at 85.4%.
`Cc1cc(OC(C)C)c([C@@H]2O[C@H](CO)C(F)(F)[C@H](O)[C@H]2O)cc1Cc1cc2ccccc2s1` [Compound 42]: at human SGLT1, the “SGLT1 % Inh @ 0.3 μM” value came out at 8.9%. Moreover, the “SGLT2 % Inh @ 0.3 μM” value on human SGLT2 is reported as 74.3%.
For the molecule `OC[C@H]1O[C@@H](c2cc(Cc3ccc4c(c3)OCCO4)c(Cl)cc2O)[C@H](O)[C@@H](O)C1(F)F` [Compound 45, (2S,3R,4R,6R)-2-[4-chloro-5-(2,3-dihydro-1,4-benzodioxin-6-ylmethyl)-2-hydroxy-phenyl]-5,5-difluoro-6-(hydroxymethyl)tetrahydropyran-3,4-diol], on human SGLT1, the inhibition at 0.3 µM was 81.7% and the IC50 worked out at 49 nM. At human SGLT2, the inhibition at 0.3 µM stood at 82% and the concentration for half-maximal inhibition (IC50) stood at 1.4 nM.
For `OC[C@H]1O[C@@H](c2cc(Cc3ccc([C@@H]4CCOC4)cc3)c(Cl)cc2O)[C@H](O)[C@@H](O)C1(F)F` [Compound 46], the “SGLT1 % Inh @ 0.3 μM” value at human SGLT1 was 18.4%. Further, the “SGLT2 % Inh @ 0.3 μM” value on human SGLT2 is on record as 89.0%.
As for `CCOc1ccc(Cc2cc([C@@H]3O[C@H](CO)C(F)(F)[C@H](O)[C@H]3O)c(O)cc2C)cc1` [Compound 47, (2S,3R,4R,6R)-2-(5-(4-ethoxybenzyl)-2-hydroxy-4-methylphenyl)-5,5-difluoro-6-(hydroxymethyl)tetrahydro-2H-pyran-3,4-diol], the inhibition at 0.3 µM worked out at 47.9% at human SGLT1 and 61.2% at human SGLT2. In addition, the IC50 against human SGLT1 was 250 nM; at human SGLT2, 1.8 nM.
As for `COc1cc(Cl)c(Cc2ccc3c(c2)OCCO3)cc1[C@@H]1O[C@H](CO)C(F)(F)[C@H](O)[C@H]1O` [Compound 48, (2S,3R,4R,6R)-2-[4-chloro-5-(2,3-dihydro-1,4-benzodioxin-6-ylmethyl)-2-methoxy-phenyl]-5,5-difluoro-6-(hydroxymethyl)tetrahydropyran-3,4-diol], the inhibition at 0.3 µM turned out to be 36.5% on human SGLT1 and 78.1% on human SGLT2.
For the molecule `CCOc1ccc(Cc2cc([C@@H]3O[C@H](CO)C(F)(F)[C@H](O)[C@H]3O)c(OC)cc2C)cc1` [Compound 49], at human SGLT1, the “SGLT1 % Inh @ 0.3 μM” value is reported as 23.2%. For the same molecule, on human SGLT2, the “SGLT2 % Inh @ 0.3 μM” value came out at 79.2%.
On to `COc1cc(Cl)c(Cc2ccc([C@@H]3CCOC3)cc2)cc1[C@@H]1O[C@H](CO)C(F)(F)[C@H](O)[C@H]1O` [Compound 50], for which the “SGLT1 % Inh @ 0.3 μM” value on human SGLT1 is 20.4%. Also, the “SGLT2 % Inh @ 0.3 μM” value on human SGLT2 amounted to 84.4%.
Taken in the same sequence, the figures for `N#CCOc1cc(Cl)c(Cc2cc3ccccc3s2)cc1[C@@H]1O[C@H](CO)C(F)(F)[C@H](O)[C@H]1O` [Compound 51] were 30.8% and 82.0%.
On to `Cc1cc(O)c([C@@H]2O[C@H](CO)C(F)(F)[C@H](O)[C@H]2O)cc1Cc1cc2cc(F)ccc2s1` [Compound 52], for which the figures for the inhibition at 0.3 µM on human SGLT1 and at human SGLT2 were 41.3% and 81.2%, respectively. The figures for the IC50 against human SGLT1 and against human SGLT2 were 229 nM and 19 nM, respectively.
`COc1cc(C)c(Cc2cc3cc(F)ccc3s2)cc1[C@@H]1O[C@H](CO)C(F)(F)[C@H](O)[C@H]1O` [Compound 53]: the “SGLT1 % Inh @ 0.3 μM” value at human SGLT1 was 0.0%. Also, at human SGLT2, the “SGLT2 % Inh @ 0.3 μM” value turned out to be 87.1%.
With `COc1cc(O)c([C@@H]2O[C@H](CO)C(F)(F)[C@H](O)[C@H]2O)cc1Cc1ccc2c(c1)OCCO2` [Compound 54, (2S,3R,4R,6R)-2-[5-(2,3-dihydro-1,4-benzodioxin-6-ylmethyl)-2-hydroxy-4-methoxy-phenyl]-5,5-difluoro-6-(hydroxymethyl)tetrahydropyran-3,4-diol], at human SGLT1, the inhibition at 0.3 µM was 41.8% and it took 895 nM to reach half-maximal inhibition (IC50). Further, at human SGLT2, the inhibition at 0.3 µM worked out at 52.8% and the IC50 came out at 26.3 nM.
With `COc1cc(OC)c([C@@H]2O[C@H](CO)C(F)(F)[C@H](O)[C@H]2O)cc1Cc1ccc2c(c1)OCCO2` [Compound 55, (2S,3R,4R,6R)-2-[5-(2,3-dihydro-1,4-benzodioxin-6-ylmethyl)-2,4-dimethoxy-phenyl]-5,5-difluoro-6-(hydroxymethyl)tetrahydropyran-3,4-diol], the inhibition at 0.3 µM turned out to be 15.8% at human SGLT1 and 84.2% on human SGLT2.
Regarding `Cc1cc(O)c([C@@H]2O[C@H](CO)C(F)(F)[C@H](O)[C@H]2O)cc1Cc1ccc2c(c1)OCCO2` [Compound 56, (2S,3R,4R,6R)-2-(5-((2,3-dihydrobenzo[b][1,4]dioxin-6-yl)methyl)-2-hydroxy-4-methylphenyl)-5,5-difluoro-6-(hydroxymethyl)tetrahydro-2H-pyran-3,4-diol], on human SGLT1, the inhibition at 0.3 µM was 78.3% and half-maximal inhibition (IC50) required 65 nM. Also, on human SGLT2, the inhibition at 0.3 µM stood at 93% and the IC50 came to 2 nM.
For the molecule `CCc1ccc(Cc2cc([C@@H]3O[C@H](CO)C(F)(F)[C@H](O)[C@H]3O)cc3c2OCC3)cc1` [Compound 58], on human SGLT1, the “SGLT1 % Inh @ 0.3 μM” value was 36.8%. Also, the “SGLT2 % Inh @ 0.3 μM” value at human SGLT2 was 81.9%.

As a reminder, the IC50 is the concentration at which inhibition is half-maximal.

Source of the values: patent publication US20210238170A1, “5,5-Difluoro- and 5-Fluoro-5-Methyl-C-Glycoside Derivatives Useful As Dual SGLT1 / SGLT2 Modulators” (Janssen Pharmaceutica NV, priority 2018, published 2021).
